Source: patent US20250332276A1, “Inhibitors of Molluscum Contagiosum Infection and Methods Using the Same” (priority 2022, published 2025)
Where two headings read alike, the source gives them in different places. *1 amine or outer side, *2 acyl side, *3 side chain or, on linkers, in order; H or OH if unused. Where a SMILES comes first, the peptide text is derived from it. The star is where a group is joined. X1 = CCC(C(=O)Nc1sc(C(=O)*)c(C)c1C(=O)OC)c1ccc(C(F)(F)F)cc1; Ethylenediamine = C(CN[*:2])N[*:1]; Boc = CC(C)(C)OC(=O)*

Tests used:
mD4 (mD4+A20+Pol) = mD4 (mD4+A20+Pol) (Molluscum contagiosum virus subtype 1, UniProt Q98260); assay: biochemical
Sequence of mD4 (mD4+A20+Pol) (Q98260 1-226): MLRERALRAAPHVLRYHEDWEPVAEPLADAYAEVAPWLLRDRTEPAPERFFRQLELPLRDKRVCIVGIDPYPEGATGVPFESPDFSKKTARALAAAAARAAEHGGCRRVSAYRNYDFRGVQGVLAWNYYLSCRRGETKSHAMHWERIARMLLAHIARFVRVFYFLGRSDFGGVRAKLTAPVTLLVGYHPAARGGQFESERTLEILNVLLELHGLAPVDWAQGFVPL

mD4 [1] = target: T1, mD4 (Molluscum contagiosum virus, UniProt Q98260); assay: mD4 dependent processive DNA synthesis in vitro (mD4 anti-processivity); format: biochemical
T1 sequence (Q98260 1-226): as above

mD4 [2] = target: T1, mD4; assay: Micro-Scale Thermophoresis binding to mD4; details: microscale thermophoresis
[3] = 3-Day Cell Viability Assay (cytotoxicity)
[4] = Table 2, read-out: IC50 (μM), mD4 anti-processivity activity

SMILES | IC50 (mD4 (mD4+A20+Pol)) | IC50 (mD4 [1]; [4]) | other results
CC(C)[C@H](N)C(=O)N[C@H](C(=O)N[C@H](C(=O)O)C(C)C)C(C)C [TriVal-Peptide Control, ((L)-Val)3, reference compound] (H-Val-Val-Val-OH) | > 100 µM |  | 
CCC(C(=O)Nc1sc(C(=O)NCCNC(=O)[C@@H](NC(=O)[C@@H](NC(=O)[C@@H](NC(=O)OC(C)(C)C)C(C)C)C(C)C)C(C)C)c(C)c1C(=O)OC)c1ccc(F)cc1 (stereo partly drawn) [Compound 8, Methyl 2-(2-(4-fluorophenyl)butanamido)-4-methyl-S-(((6S,9S,12S)-6,9,12-triisopropyl-2,2-dimethyl-4,7,10,13-tetraoxo-3-oxa-5,8,11,14-tetraazahexadecan-16-yl)carbamoyl)thiophene-3-carboxylate] |  | 10.7 µM | 
CCC(C(=O)Nc1sc(C(=O)NCCNC(=O)[C@@H](NC(=O)[C@@H](NC(=O)OC(C)(C)C)C(C)C)C(C)C)c(C)c1C(=O)OC)c1ccc(F)cc1 (stereo partly drawn) [Compound 5, Methyl 5-(((6S,9S)-6,9-diisopropyl-2,2-dimethyl-4,7,10-trioxo-3-oxa-5,8,11-triazatridecan-13-yl)carbamoyl)-2-(2-(4-fluorophenyl)butanamido)-4-methylthiophene-3-carboxylate] |  | 20 µM | 
CCC(C(=O)Nc1sc(C(=O)NCCNC(=O)[C@@H](NC(=O)[C@@H](NC(=O)[C@@H](N)C(C)C)C(C)C)C(C)C)c(C)c1C(=O)OC)c1ccc(F)cc1 (stereo partly drawn) [Compound 9, Methyl 5-((2-((S)-2-((S)-2-((S)-2-amino-3-methylbutanamido)-3-methylbutanamido)-3-methylbutanamido)ethyl)carbamoyl)-2-(2-(4-fluorophenyl)butanamido)-4-methylthiophene-3-carboxylate] | 5.6 µM |  | IC50 (mD4 [1]; read-out: IC50, mD4 dependent processive DNA synthesis in vitro): 5 µM; Kd (mD4 [2]): 2.84 µM; CC50 at 3 day [3]: > 100 µM; cytotoxicity, result in words ([3]; cell viability assay or seen when evaluated in mD4-VV infection): no measurable cytotoxicity
CCC(C(=O)Nc1sc(C(=O)NCCNC(=O)[C@H](NC(=O)[C@H](NC(=O)[C@H](N)C(C)C)C(C)C)C(C)C)c(C)c1C(=O)OC)c1ccc(F)cc1 (stereo partly drawn) [Compound 20, Methyl 5-((2-((R)-2-((R)-2-((R)-2-amino-3-methylbutanamido)-3-methylbutanamido)-3-methylbutanamido)ethyl)carbamoyl)-2-(2-(4-fluorophenyl)butanamido)-4-methylthiophene-3-carboxylate] |  | 3 µM | 
CCC(C(=O)Nc1sc(C(=O)NCCNC(=O)[C@@H](NC(=O)[C@@H](NC(=O)[C@@H](NC(=O)[C@@H](NC(=O)OC(C)(C)C)C(C)C)C(C)C)C(C)C)C(C)C)c(C)c1C(=O)OC)c1ccc(C(F)(F)F)cc1 (stereo partly drawn) [Compound 26, Methyl 4-methyl-5-(((6S,9S,12S,15S)-6,9,12,15-tetraisopropyl-2,2-dimethyl-4,7,10,13,16-pentaoxo-3-oxa-5,8,11,14,17-pentaazanonadecan-19-yl)carbamoyl)-2-(2-(4-(trifluoromethyl)phenyl)butanamido)thiophene-3-carboxylate] (Boc-VVVV-{Ethylenediamine-X1}) |  | 4.1 µM | 
